Test results as given in patent US9562899B2, “Method of detecting OXA-048 carbapenemase producing bacteria” (BIOMÉRIEUX, priority 2012, dated 2017).

Legend:
Test in all cases: Temocillin MIC with EDTA in the medium (Example 2)
Format in all cases: cell-based, Enterobacteriaceae
[1] = test system: AmpC strains; conditions: Ex 2, MIC in mg/l
Text: (§1) Optimization of the Detection Specificity by Introducing Specific Inhibitors Inhibition of Class B Strains (NDM, VIM, IMP) by Adding EDTA
(§2) Identical to that used to determine the temocillin MICs by agar dilution (example 1).
(§3) For each temocillin concentration, the following concentrations of active EDTA will be tested in the form of disodium EDTA: 0, 1.77, 2.12, 2.47 and 2.83 mmol/l.
(§4) Method: identical to the method used in example 1.

[2] = test system: OXA-48 strains; conditions: Ex 2, MIC in mg/l
Text: as §1, §2, §3, §4

[3] = test system: IMP strains; conditions: Ex 2, MIC in mg/l
Text: as §1, §2, §3, §4

[4] = test system: KPC strains; conditions: Ex 2; 0 mmol/l of EDTA; MIC in mg/l
Text: as §1, §2, §3, §4

## CO[C@@]1(NC(=O)C(C(=O)O)c2ccsc2)C(=O)N2[C@@H](C(=O)O)C(C)(C)S[C@@H]21 (stereo partly shown) [temocillin]
[1]; 0 mmol/l of EDTA
  No. of AmpC strains with MIC 150: 0
  No. of AmpC strains with MIC 200: 0
  No. of AmpC strains with MIC 300: 0
  No. of AmpC strains with MIC >300: 0
  No. of AmpC strains with MIC ≦50: 10
[1]; 1.77 mmol/l of active EDTA
  No. of AmpC strains with MIC 150: 1
  No. of AmpC strains with MIC 200: 0
  No. of AmpC strains with MIC 300: 0
  No. of AmpC strains with MIC >300: 0
  No. of AmpC strains with MIC ≦50: 9
[1]; 2.12 mmol/l of active EDTA
  No. of AmpC strains with MIC 150: 1
  No. of AmpC strains with MIC 200: 0
  No. of AmpC strains with MIC 300: 0
  No. of AmpC strains with MIC >300: 0
  No. of AmpC strains with MIC ≦50: 9
[1]; 2.47 mmol/l of active EDTA
  No. of AmpC strains with MIC 150: 0
  No. of AmpC strains with MIC 200: 0
  No. of AmpC strains with MIC 300: 0
  No. of AmpC strains with MIC >300: 0
  No. of AmpC strains with MIC ≦50: 10
[1]; 2.83 mmol/l of active EDTA
  No. of AmpC strains with MIC 150: 0
  No. of AmpC strains with MIC 200: 0
  No. of AmpC strains with MIC 300: 0
  No. of AmpC strains with MIC >300: 0
  No. of AmpC strains with MIC ≦50: 10
[2]; 0 mmol/l of EDTA
  No. of OXA-48 strains with MIC 150: 0
  No. of OXA-48 strains with MIC 200: 0
  No. of OXA-48 strains with MIC 300: 3
  No. of OXA-48 strains with MIC >300: 12
  No. of OXA-48 strains with MIC ≦50: 0
[2]; 1.77 mmol/l of active EDTA
  No. of OXA-48 strains with MIC 150: 0
  No. of OXA-48 strains with MIC 200: 0
  No. of OXA-48 strains with MIC 300: 0
  No. of OXA-48 strains with MIC >300: 15
  No. of OXA-48 strains with MIC ≦50: 0
[2]; 2.12 mmol/l of active EDTA
  No. of OXA-48 strains with MIC 150: 0
  No. of OXA-48 strains with MIC 200: 0
  No. of OXA-48 strains with MIC 300: 0
  No. of OXA-48 strains with MIC >300: 15
  No. of OXA-48 strains with MIC ≦50: 0
[2]; 2.47 mmol/l of active EDTA
  No. of OXA-48 strains with MIC 150: 0
  No. of OXA-48 strains with MIC 200: 0
  No. of OXA-48 strains with MIC 300: 2
  No. of OXA-48 strains with MIC >300: 13
  No. of OXA-48 strains with MIC ≦50: 0
[2]; 2.83 mmol/l of active EDTA
  No. of OXA-48 strains with MIC 150: 1
  No. of OXA-48 strains with MIC 200: 0
  No. of OXA-48 strains with MIC 300: 3
  No. of OXA-48 strains with MIC >300: 8
  No. of OXA-48 strains with MIC ≦50: 3
[3]; 0 mmol/l of EDTA
  No. of IMP strains with MIC 150: 0
  No. of IMP strains with MIC 200: 0
  No. of IMP strains with MIC 300: 0
  No. of IMP strains with MIC >300: 1
  No. of IMP strains with MIC ≦50: 12
[3]; 1.77 mmol/l of active EDTA
  No. of IMP strains with MIC 150: 0
  No. of IMP strains with MIC 200: 0
  No. of IMP strains with MIC 300: 0
  No. of IMP strains with MIC >300: 1
  No. of IMP strains with MIC ≦50: 12
[3]; 2.12 mmol/l of active EDTA
  No. of IMP strains with MIC 150: 0
  No. of IMP strains with MIC 200: 0
  No. of IMP strains with MIC 300: 0
  No. of IMP strains with MIC >300: 1
  No. of IMP strains with MIC ≦50: 12
[3]; 2.47 mmol/l of active EDTA
  No. of IMP strains with MIC 150: 0
  No. of IMP strains with MIC 200: 0
  No. of IMP strains with MIC 300: 0
  No. of IMP strains with MIC >300: 1
  No. of IMP strains with MIC ≦50: 12
[3]; 2.83 mmol/l of active EDTA
  No. of IMP strains with MIC 150: 0
  No. of IMP strains with MIC 200: 0
  No. of IMP strains with MIC 300: 0
  No. of IMP strains with MIC >300: 1
  No. of IMP strains with MIC ≦50: 12
[4]
  No. of KPC strains with MIC 150: 0
